The values that follow come from patent US20090246481A1, “DISPERSION OF WATER-INSOLUBLE COLORANT, METHOD OF PRODUCING SUBSTANCE CONTAINING WATER-INSOLUBLE COLORANT, FINE PARTICLES OF WATER-INSOLUBLE COLORANT, DISPERSING AGENT FOR WATER-INSOLUBLE COLORANT, AND RECORDING LIQUID, INK SET, PRINTED ARTICLE, METHOD OF FORMING IMAGE AND IMAGE FORMING APPARATUS …” (FUJIFILM Corporation, priority 2008, published 2009).

This data set in a line: pKa of monomers by neutralization titration. The data set is classed as physicochemical. Conditions: tetrahydrofuran/water=6:4. The method, then:
The pKa value of each monomer was calculated in accordance with a neutralization titration method in a system of tetrahydrofuran/water=6:4 by means of an automatic titrator COM-2500 (trade name) manufactured by Hiranuma Sangyo Co., Ltd.

The term pKa denotes the pH at which an ionisable group is half protonated. In the case of `C=C(C)C(=O)NS(C)(=O)=O` [Monomer 1], the pKa is 3.96.
In turn, `C=C(C)C(=O)O` [Methacrylic acid] yielded a pKa of 3.98.
